This is an account of results in US9902735B2, “Heteroaryl substituted compounds as RORγ inhibitors” (GlaxoSmithKline Intellectual Property Developement Limited, priority 2014, dated 2018).

Common to all, as to format: cell-based
One assay concerns Mouse CD4+ cells. As to the kind of experiment: Th17 cell differentiation assay (IL-17 ELISA). The note with it: mean of multiple test results if tested more than once, read-out: pIC50 in the Th17 cell differentiation assay (converted). The protocol:
Mouse CD4+ cells were purified using the CD4+ T Cell Isolation II Kit according to manufacturer's instructions (Miltenyi Biotec). 96 well plates were pre-coated with anti-mCD3 antibody. Un-coated wells were used as controls. CD4+ Cells were resuspended in RPMI 1640 complete medium and were added to the 96-well plates. Cytokine cocktail and the compound were then added to the wells. Antibodies and cytokines (all from R&D Systems) used in the assay were selected from the following: anti-mCD3; anti-mCD28; anti-mIFNγ; anti-mIL4; mIL-6; mIL-23; mIL-1β; hTGF-β1. The culture was incubated at 37° C. for 3 days and supernatants were collected for ELISA. The IL-17 ELISAs were performed according to manufacturer's instructions (R&D Systems). The results were analyzed using Prism software with non-linear regression to determine pIC50.
The Th17 differentiation culture described above was maintained for 5 days and cells were analyzed by IL-17 and IFN-γ intracellular staining according to manufacturer's instructions (BD Biosciences).

The target in a further assay is T1, RORγ (Homo sapiens, UniProt P51449).
T1 construct: expressed in transfected cells
T1 sequence (P51449 1-497 isoform P51449-2): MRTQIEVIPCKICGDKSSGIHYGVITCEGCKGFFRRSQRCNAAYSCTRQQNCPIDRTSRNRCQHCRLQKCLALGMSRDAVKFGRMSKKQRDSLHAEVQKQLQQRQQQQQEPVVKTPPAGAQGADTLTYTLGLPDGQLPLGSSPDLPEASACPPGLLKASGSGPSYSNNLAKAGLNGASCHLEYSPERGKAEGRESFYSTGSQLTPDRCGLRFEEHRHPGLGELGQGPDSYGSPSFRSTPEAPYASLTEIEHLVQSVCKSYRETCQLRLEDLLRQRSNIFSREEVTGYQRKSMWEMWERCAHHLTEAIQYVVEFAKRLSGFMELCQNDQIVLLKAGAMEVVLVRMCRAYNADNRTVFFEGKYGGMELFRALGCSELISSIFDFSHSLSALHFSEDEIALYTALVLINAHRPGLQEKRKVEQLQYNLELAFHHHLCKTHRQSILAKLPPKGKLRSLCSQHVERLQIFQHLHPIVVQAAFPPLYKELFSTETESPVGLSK
As to the kind of experiment: Jurkat cell luciferase assay (human IL17 promoter reporter). Particulars: mean of multiple test results if tested more than once; read-out: pIC50 in the Jurkat cell luciferase assay (converted). An excerpt: RORγ is known to bind to a CNS (conserved non-coding sequences) enhancer element in the IL17 promoter. In this assay, RORγ activity is indirectly assessed using a luciferase reporter construct which contains the human IL17 promoter having the RORγ-specific CNS enhancer element. Inhibition of RORγ activity by a compound will result in a decrease in luciferase activity of Jurkat cells transfected with the reporter construct.
For the luciferase reporter plasmid, the 3 Kb human IL17 promoter containing the RORγ-specific CNS enhancer element was PCR amplified from human genomic DNA and cloned into a pGL4-Luc2/hygro reporter plasmid sequentially as XhoI-HindIII (1.1 Kb) and KpnI-XhoI (1.9 Kb) fragments. For the 1.1 Kb fragment, PCR was used to amplify human IL17 proximal promoter region from genomic DNA of 293T cells using primers as follows: forward primer, 5′-[…]-3′ (XhoI site is underlined) and reverse primer, 5′-[…]-3′ (HindIII site is underlined). The 1.1 kb DNA bands were excised, purified, and inserted into pMD19-T Simple Vector (Takara). […]
Compounds were dissolved in DMSO at three concentrations, 10 mM, 400 uM and 16 uM, and were dispensed into 384-wells assay plate at 40 nl, 12.5 nl, 5 nl respectively. The volume was adjusted with pure DMSO to a give a final uniform volume of 40 nl Jurkat cells described above were counted and centrifuged. […]

In a further assay the test system is human CD4+ T cells. As to the kind of experiment: Human peripheral blood CD4+ T cell cultures and cytokine analysis (Th17 polarization). Particulars: secreted IL-17A, 5 days Th17 polarization. The protocol: Human biological samples were cryopreserved human CD4+ T cells purchased from AllCells, LLC and Stemcell Technologies, Inc. The CD4+ T cells were differentiated to the Th17 subtype by culturing for 5 days in tissue culture plates coated with anti-CD3 antibody (2 μg/mL) in Iscove's modified Dulbecco's medium (IMDM) containing 10% HI-FBS, 55 μM 2-mercaptoethanol and soluble anti-CD28 (3 μg/mL) in the presence of a Th17 skewing cocktail, including IL-1β (10 ng/mL), IL-6 (30 ng/mL), TGFβ (0.5 ng/mL), IL-21 (10 ng/mL), IL-23 (10 ng/mL), anti-IFNγ (10 μg/mL) and anti-IL-4 (10 μg/mL). To examine compound effects on Th17 polarization, freshly thawed CD4+ cells in IMDM supplemented with all Th17 polarization cocktail constituents (above) were seeded at low cell density (20,000 cells/well) directly into anti-CD3 coated round bottom 96-well plates already containing serially diluted compounds. Cells were incubated undisturbed for 5 days at 37° C. Immediately following culture, supernatant was analyzed for secreted IL-17A and IL-22 protein by MSD electrochemiluminescent cytokine assays (Mesoscale Discovery) and ELISA (Quantikine assay, R&D Systems), respectively. Compound treatment(s) were performed in triplicate. Results are presented as the mean±SD or as mean percent inhibition (±SD) relative to the response to stimulus alone.

On to `Cc1ncc(C(=O)Nc2cc(Cl)cc(CN3CCN(C(=O)CC4CC4)[C@@H](C)C3)c2C)cc1F` [Example 80, (S)—N-(5-chloro-3-((4-(2-cyclopropylacetyl)-3-methylpiperazin-1-yl)methyl)-2-methylphenyl)-5-fluoro-6-methylnicotinamide], for which the IC50 is around 5.01 nM in the assay on Mouse CD4+ cells; around 6.31 nM at RORγ; 28.8 nM in the assay with human CD4+ T cells (Homo sapiens, CD4+ T, 120 h, read-out: IL17A pIC50 (converted)). Moreover, the “Inhibition Activity (ASSYM MAX)” value in the assay with human CD4+ T cells was 94.
